Like-named read-outs stand apart in the source and are kept apart here.
Columns and labels:
[1] = tested on: Human Breast Cancer MDA-MB-468 Cell Nude Mice Xenograft; test: Growth of human breast cancer MDA-MB-468 cell nude mice xenograft; type: in vivo; settings: for Tumor Volumes / Tumor weights: abdominal cavity, once every 2 days; for Anti-tumor effect compared with the combination group olaparib (50 mg/kg)/BKM120 (27.5 mg/kg) (in words): p<0.05; for Inhibition of the growth of the MDA-MB-468 nude mice xenografts (in words) / Inhibition rate compared with positive drugs olaparib and BKM120 (in words): I-1 50 mg/kg, 1-3 50 mg/kg, olaparib 50 mg/kg/BKM120 27.5 mg/kg; for Tumor weights: after 34 days, in g (unit assumed)
Protocol: Preparing an MDA-MB-468 cell line in a logarithmic growth phase into a 2×10^7/mL cell suspension under sterile conditions, and inoculating 0.1 mL of the cell suspension under the skin of the right axilla of each nude mouse. Measuring the diameter of a nude mice xenograft with a vernier caliper, and randomly dividing the animals into groups after the tumors grew to about 100 mm^3. Dynamically observing an anti-tumor effect of the tested animals using a method of measuring the tumor diameter, wherein the frequency of measurements of the tumor diameter is once every 2 days, and the administration volume is 0.4 mL/20 g. After 34 days, killing the mice and surgically removing and weighing tumor pieces. The formula for calculating tumor volume (TV) is: TV=½×a×b^2, wherein a and b represent the length and the width respectively.

[2] = tested on: MDA-MB-468 (human breast cancer cells); test: Tumor cell proliferation inhibition (SRB, 72 hours), MDA-MB-468; type: cell-based
Protocol: (§1) Inoculating HCT116 (human colon cancer cells), HCC1937 (human breast cancer cells), MDA-MB-231 (human breast cancer cells) and MDA-MB-468 (human breast cancer cells) in a logarithmic growth phase with a certain quantity in a 96-well plate (200 μL/well) for culture for 24 hours so as to adhere to walls and then adding drugs. Arranging 3 duplicate wells for each drug concentration, and setting corresponding zero-cut holes and blank controls. After 72 hours of drug action, adding 50% TCA (50 μL/well) into adherent cells, fixing at 4° C. for 1 hour, pouring a fixing solution, washing for 5 times with distilled water, and naturally drying. Adding 100 μL of 4 mg/mL SRB into each well, staining at a room temperature for 15 minutes, discarding, washing for 5 times with 1% glacial acetic acid, and naturally drying. Finally, adding 150 μL of a 10 mM Tris solution into each well, shaking to be uniform, and measuring OD values at a wavelength of 565 nm using a wavelength-adjustable microplate reader (VERSAmax™, Molecular Device).

PARP-1 = PARP-1 (Homo sapiens, UniProt P09874); test: PARP-1 inhibitory activity at the enzyme level (histone-coated plate, chemiluminescence); type: biochemical; settings: for inhibition at 0.01 µM: 10 nM compound, read-out: Inhibition rate on PARP-1 (10 nM)
Protocol: Experimental method for PARP-1 inhibitory activity: taking out a 96-well plate pre-coated with histones, and adding a following enzyme reaction system and inhibitors of different concentrations into each well, including: 50 μL of a reaction buffer solution (Tris*HCl, pH 8.0), NAD^+, biotin-labeled activated DNA, PARP-1 enzyme, and an inhibitor; after reaction at a room temperature for 1 hour, adding 50 uL of avidin-labeled HRP into each well for reaction for 30 minutes; and then adding 100 μL of an HRP substrate, and detecting a chemiluminescence value on a SpectraMax M instrument. The percentage of enzyme activity is calculated by the following formula: Enzyme activity percentage (%)=(OD value administration hole-OD value background)/(OD value control hole−OD value background)×100%
(§2) Method for determining IC50 of PARP-1 and PI3Kα: diluting a drug concentration according to a three-fold concentration gradient, and detecting two duplicate wells at each concentration; taking the drug concentration as the abscissa and the percentage of enzyme activity corresponding to each concentration as the ordinate, and calculating to obtain inhibition IC50 values of all tested compounds by using Graphpad Prism5 for nonlinear regression.

PI3Kα = PI3Kα (Homo sapiens, UniProt P42336); test: PI3Kα inhibitory activity at the enzyme level (ADP detection by luciferase method); type: biochemical; settings: for inhibition at 0.1 µM: 100 nM compound, read-out: Inhibition rate on PI3Kα (100 nM)
Protocol: Experimental method for PI3Kα inhibitory activity: simultaneously adding 40 mM Tris, pH 7.4, 10 mM MgCl2, 0.1 mg/ml BSA, 1 mM DTT, 10 μM ATP, PI3Kα kinase and a kinase substrate into different concentrations of compounds to be sieved to form a 50 μL reaction system, after reaction at 30° C. for 40 minutes, detecting an ADP content in the system through a luciferase method, and then after reaction for 5 minutes, detecting a chemiluminescence signal on an MD-SpectraMax M5 multi-function microplate reader, wherein the intensity of a value of the chemiluminescence signal is in direct proportion to […]. The detected value of the chemiluminescence signal is substituted into the following formula: Enzyme activity percentage (%)=(OD value administration hole-OD value background)/(OD value control hole−OD value background)×100%
as §2

[3] = tested on: HCC1937 (human breast cancer cells); test: Tumor cell proliferation inhibition (SRB, 72 hours), HCC1937; type: cell-based
Protocol: as §1

[4] = tested on: HCT116 (human colon cancer cells); test: Tumor cell proliferation inhibition (SRB, 72 hours), HCT116; type: cell-based
Protocol: as §1

[5] = tested on: MDA-MB-231 (human breast cancer cells); test: Tumor cell proliferation inhibition (SRB, 72 hours), MDA-MB-231; type: cell-based
Protocol: as §1

[6] = 12 days, 50 mg/kg (I-1: medium)
[7] = 18 days, 50 mg/kg (I-1: medium)
[8] = 24 days, 50 mg/kg (I-1: medium)
[9] = 30 days, 50 mg/kg (I-1: medium)
[10] = 34 days, 50 mg/kg (I-1: medium)

Chain of PARP-1 (P09874 whole entry): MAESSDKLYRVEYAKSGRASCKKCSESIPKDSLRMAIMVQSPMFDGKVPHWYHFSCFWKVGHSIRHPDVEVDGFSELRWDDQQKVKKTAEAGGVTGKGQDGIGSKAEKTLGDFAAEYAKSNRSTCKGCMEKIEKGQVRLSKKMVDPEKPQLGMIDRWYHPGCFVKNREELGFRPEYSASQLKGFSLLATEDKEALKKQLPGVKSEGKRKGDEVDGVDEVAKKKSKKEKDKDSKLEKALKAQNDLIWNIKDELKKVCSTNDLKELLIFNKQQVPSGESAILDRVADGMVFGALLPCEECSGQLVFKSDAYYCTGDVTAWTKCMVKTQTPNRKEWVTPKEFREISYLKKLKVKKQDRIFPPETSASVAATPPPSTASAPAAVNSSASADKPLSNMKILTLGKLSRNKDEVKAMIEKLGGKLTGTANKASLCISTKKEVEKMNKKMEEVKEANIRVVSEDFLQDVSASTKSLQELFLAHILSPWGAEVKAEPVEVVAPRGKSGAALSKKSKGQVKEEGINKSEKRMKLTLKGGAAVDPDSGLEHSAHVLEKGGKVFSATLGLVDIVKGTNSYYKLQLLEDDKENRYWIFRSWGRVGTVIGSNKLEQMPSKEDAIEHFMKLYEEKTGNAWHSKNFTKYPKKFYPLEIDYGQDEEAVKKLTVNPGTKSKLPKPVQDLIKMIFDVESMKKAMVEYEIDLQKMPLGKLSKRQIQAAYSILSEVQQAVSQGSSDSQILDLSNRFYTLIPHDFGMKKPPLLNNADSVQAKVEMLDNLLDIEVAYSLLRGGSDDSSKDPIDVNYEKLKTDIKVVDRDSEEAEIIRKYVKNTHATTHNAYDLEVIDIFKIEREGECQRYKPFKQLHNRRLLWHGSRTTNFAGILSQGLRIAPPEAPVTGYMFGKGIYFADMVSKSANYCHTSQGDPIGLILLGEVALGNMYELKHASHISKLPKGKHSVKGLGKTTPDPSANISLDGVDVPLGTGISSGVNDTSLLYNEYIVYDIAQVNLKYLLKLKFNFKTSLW
Chain of PI3Kα (P42336 whole entry): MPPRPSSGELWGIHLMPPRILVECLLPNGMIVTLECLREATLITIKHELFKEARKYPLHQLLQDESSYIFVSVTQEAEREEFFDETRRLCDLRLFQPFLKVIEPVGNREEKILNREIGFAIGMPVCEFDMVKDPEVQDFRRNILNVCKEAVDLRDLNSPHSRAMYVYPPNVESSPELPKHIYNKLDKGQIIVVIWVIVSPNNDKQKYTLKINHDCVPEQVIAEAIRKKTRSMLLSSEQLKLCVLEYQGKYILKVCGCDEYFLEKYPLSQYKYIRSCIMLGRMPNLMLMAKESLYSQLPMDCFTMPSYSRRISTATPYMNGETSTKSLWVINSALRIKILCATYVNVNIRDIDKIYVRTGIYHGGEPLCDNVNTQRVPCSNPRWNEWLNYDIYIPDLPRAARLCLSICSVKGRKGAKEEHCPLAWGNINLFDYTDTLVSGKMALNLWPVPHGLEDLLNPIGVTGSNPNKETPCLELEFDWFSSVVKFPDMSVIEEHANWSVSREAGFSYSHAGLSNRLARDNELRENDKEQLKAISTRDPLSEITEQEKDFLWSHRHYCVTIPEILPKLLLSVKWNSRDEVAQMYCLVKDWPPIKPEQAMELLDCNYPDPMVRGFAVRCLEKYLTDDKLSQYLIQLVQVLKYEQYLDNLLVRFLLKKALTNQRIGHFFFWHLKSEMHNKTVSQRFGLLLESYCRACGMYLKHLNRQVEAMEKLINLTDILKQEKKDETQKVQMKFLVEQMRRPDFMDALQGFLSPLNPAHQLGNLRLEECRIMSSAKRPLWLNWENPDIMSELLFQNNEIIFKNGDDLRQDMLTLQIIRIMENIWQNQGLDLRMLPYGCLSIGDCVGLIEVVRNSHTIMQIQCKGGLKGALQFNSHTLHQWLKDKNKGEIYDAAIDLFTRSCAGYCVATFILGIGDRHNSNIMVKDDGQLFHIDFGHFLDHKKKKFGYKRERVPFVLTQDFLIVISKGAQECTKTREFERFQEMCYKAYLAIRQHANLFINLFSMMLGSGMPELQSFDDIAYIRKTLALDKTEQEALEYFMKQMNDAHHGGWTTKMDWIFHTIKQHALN
Chain of PI3Kα (P27986 whole entry partner): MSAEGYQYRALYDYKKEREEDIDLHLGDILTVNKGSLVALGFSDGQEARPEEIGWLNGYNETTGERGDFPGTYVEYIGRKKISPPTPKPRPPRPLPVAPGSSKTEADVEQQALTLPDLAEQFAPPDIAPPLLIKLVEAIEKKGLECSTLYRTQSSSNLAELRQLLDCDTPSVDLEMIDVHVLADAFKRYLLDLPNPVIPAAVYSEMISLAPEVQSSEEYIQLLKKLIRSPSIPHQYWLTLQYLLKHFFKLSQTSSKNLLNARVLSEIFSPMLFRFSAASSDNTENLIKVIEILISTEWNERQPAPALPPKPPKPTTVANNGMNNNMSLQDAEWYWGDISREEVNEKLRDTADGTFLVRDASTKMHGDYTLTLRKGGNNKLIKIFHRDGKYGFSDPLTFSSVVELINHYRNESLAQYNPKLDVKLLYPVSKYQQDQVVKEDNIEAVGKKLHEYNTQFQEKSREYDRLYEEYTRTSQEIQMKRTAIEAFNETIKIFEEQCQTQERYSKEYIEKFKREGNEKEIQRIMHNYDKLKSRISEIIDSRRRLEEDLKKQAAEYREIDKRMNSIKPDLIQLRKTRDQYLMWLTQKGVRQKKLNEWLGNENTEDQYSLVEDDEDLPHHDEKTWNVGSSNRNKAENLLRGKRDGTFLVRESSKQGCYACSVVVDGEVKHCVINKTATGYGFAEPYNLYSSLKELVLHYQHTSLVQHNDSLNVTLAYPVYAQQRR

Row | Compound | Tumor Volumes ([1]; 0 day, 50 mg/kg (I-1: medium)) [mm^3] | Anti-tumor effect compared with the combination group olaparib (50 mg/kg)/BKM120 (27.5 mg/kg) (in words) ([1]; 50 mg/kg) | Tumor Volumes ([1]; 6 days, 50 mg/kg (I-1: medium)) [mm^3] | Tumor Volumes [1, 6] [mm^3] | Tumor Volumes [1, 7] [mm^3] | Tumor Volumes [1, 8] [mm^3] | Tumor Volumes [1, 9] [mm^3] | Tumor Volumes [1, 10] [mm^3] | Inhibition of the growth of the MDA-MB-468 nude mice xenografts (in words) [1] | Inhibition rate compared with positive drugs olaparib and BKM120 (in words) [1] | Tumor weights ([1]; 50 mg/kg (I-1: medium)) | IC50 [2] [nM] | IC50 ([2]; Homo sapiens, MDA-MB-468, 72 h) [nM] | IC50 (PARP-1) [nM] | inhibition at 0.01 µM (PARP-1) [%] | IC50 (PI3Kα) [nM] | inhibition at 0.1 µM (PI3Kα) [%] | IC50 ([4]; Homo sapiens, HCT-116, 72 h) [nM] | IC50 ([5]; Homo sapiens, MDA-MB-231, 72 h) [nM] | IC50 ([3]; Homo sapiens, HCC1937, 72 h) [nM] | other results
1 | Nc1ncc(-c2nc3c(c(N4CCOCC4)n2)CCN(C(=O)c2cc(Cc4n[nH]c(=O)c5ccccc45)ccc2F)C3)cn1 [I-1, 4-(3-(2-(2-aminopyrimidin-5-yl)-4-morpholinyl-5,6,7,8-tetrahydropyrido [3,4-d]pyrimidin-7-formyl)-4-fluorobenzyl) phthalazin-1(2H)-one] | 94.95 | obviously superior | 136.45 | 222.15 | 301.78 | 399.10 | 489.89 | 551.70 | significantly inhibit the growth | higher | 0.54 | 909 | < 1000 | 3.75 | 81 | 69 | 66 | – | – | – | Tumor Volumes ([1]; 0 day, high, 100 mg/kg): 93.30 mm^3; Tumor Volumes ([1]; 0 day, low, 25 mg/kg): 96.16 mm^3; Dose dependence of tumor growth inhibition (in words) ([1]; 25, 50, 100 mg/kg): dose-dependent manner; Tumor Volumes ([1]; 6 days, high, 100 mg/kg): 122.80 mm^3; Tumor Volumes ([1]; 6 days, low, 25 mg/kg): 205.61 mm^3; Tumor Volumes ([1]; 12 days, high, 100 mg/kg): 145.60 mm^3; Tumor Volumes ([1]; 12 days, low, 25 mg/kg): 303.37 mm^3; Tumor Volumes ([1]; 18 days, high, 100 mg/kg): 186.00 mm^3; Tumor Volumes ([1]; 18 days, low, 25 mg/kg): 401.23 mm^3; Tumor Volumes ([1]; 24 days, high, 100 mg/kg): 209.30 mm^3; Tumor Volumes ([1]; 24 days, low, 25 mg/kg): 555.25 mm^3; Tumor Volumes ([1]; 30 days, high, 100 mg/kg): 234.10 mm^3; Tumor Volumes ([1]; 30 days, low, 25 mg/kg): 707.38 mm^3; Tumor Volumes ([1]; 34 days, high, 100 mg/kg): 250.00 mm^3; Tumor Volumes ([1]; 34 days, low, 25 mg/kg): 808.40 mm^3; Tumor weights ([1]; high, 100 mg/kg): 0.34; Tumor weights ([1]; low, 25 mg/kg): 0.85; IC50 [3]: 81 nM
2 | Nc1ccc(-c2nc3c(c(N4CCOCC4)n2)CCN(C(=O)c2cc(Cc4n[nH]c(=O)c5ccccc45)ccc2F)C3)cn1 [I-2, 4-(3-(2-(6-aminopyridin-3-yl)-4-morpholinyl-5,6,7,8-tetrahydropyrido[3,4-d]pyrimidin-7-formyl)-4-fluorobenzyl)phthalazin-1(2H)-one] | – | – | – | – | – | – | – | – | – | – | – | – | 1340 | 0.395 | 93 | 130 | 66 | 217 | 816 | 121 | –
3 | Nc1cc(C(F)(F)F)c(-c2nc3c(c(N4CCOCC4)n2)CCN(C(=O)c2cc(Cc4n[nH]c(=O)c5ccccc45)ccc2F)C3)cn1 [I-3, 4-(3-(2-(6-amino-4-(trifluoromethyl)pyridin-3-yl)-4-morpholinyl-5,6,7,8-tetrahydropyrido [3,4-d]pyrimidin-7-formyl)-4-fluorobenzyl)phthalazin-1(2H)-one] | 93.00 | obviously superior | 142.00 | 190.90 | 216.60 | 241.50 | 280.80 | 310.10 | significantly inhibit the growth | higher | 0.44 | 266 | – | 4.9 | 55 | 194 | 34 | < 1000 | – | < 1000 | IC50 [4]: 775 nM; Anti-tumor effect, ranking among the groups (in words) ([1]; 50 mg/kg): optimal; IC50 [5]: 155 nM; IC50 [3]: 504 nM
4 | O=C(c1cc(Cc2n[nH]c(=O)c3ccccc23)ccc1F)N1CCc2c(nc(-c3cccc4[nH]ncc34)nc2N2CCOCC2)C1 [I-8, 4-(3-(2-(1H-indazole-4-yl)-4-morpholinyl-5,6,7,8-tetrahydropyrido[3,4-d]pyrimidin-7-formyl)-4-fluorobenzyl)phthalazin-1(2H)-one] | – | – | – | – | – | – | – | – | – | – | – | – | 1150 | – | 91 | – | 42 | 536 | 708 | 482 | –
5 | C[C@@H]1CN(c2nc(-c3cnc(N)nc3)nc3c2CCN(C(=O)c2cc(Cc4n[nH]c(=O)c5ccccc45)ccc2F)C3)C[C@H](C)O1 [I-12, 4-(3-(2-(2-aminopyrimidin-5-yl)-4-((2S,6R)-2,6-dimethylmorpholinyl)-5,6,7,8-tetrahydropyrido [3,4-d]pyrimidin-7-formyl)-4-fluorobenzyl) phthalazin-1(2H)-one] | – | – | – | – | – | – | – | – | – | – | – | – | 1580 | 3.87 | 76 | 92.6 | 40 | 1010 | 1130 | 784 | melting point: 204 to 206 °C
